Entries after “also recorded” stand apart in the source; their conditions may differ.
Tests used:
[1] = system: human platelet rich plasma; experiment: Agonist-induced platelet aggregation in normal and aspirinized PRP, PAP 8E platelet aggregometer (Example 1); format: cell-based; settings: for ability to detect the drug in the presence of aspirin: aspirinized PRP, synthetic collagen 8-64 ng/mL; for effect on biological collagen-induced aggregation: Bio/Data and Chrono Log biological collagen; for effect on Bio/Data collagen-induced aggregation: Bio/Data collagen 190 μg/mL; for effect on arachidonic acid-induced aggregation: arachidonic acid 500 μg/mL; for antiplatelet effect in synthetic collagen-induced aggregation at lower concentrations: synthetic collagen 32 ng/mL and lower (32, 16, 8 ng/mL); for effect on 64 ng/mL synthetic collagen-induced aggregation: synthetic collagen 64 ng/mL
Description: ADP was obtained from Bio/Data Corporation, Horsham, Pa. Each vial was reconstituted with 1 mL of deionized water to make a 100 μM working solution. The final concentration of ADP in the aggregation cuvette was 10 μM.
Arachidonic acid was obtained from Bio/Data Corporation, Horsham, Pa. Each vial was reconstituted with 0.5 mL deionized water to make a 5 mg/mL working solution. The final concentration of arachidonic acid in the aggregation cuvette was 500 μg/mL.
Biological Collagen was obtained from Bio/Data Corporation, Horsham, Pa. Each vial was reconstituted with 0.5 mL deionized water to make a 1.9 mg/mL working solution. The final concentration of Bio/Data collagen in the aggregation cuvette was 190 μg/mL.
Biological Collagen was obtained from Chrono Log Corporation, Havertown, Pa. as a 1 mg/mL solution. A working solution of 100 μg/mL was made by dilution with physiologic saline. The final concentration of Chrono Log collagen in the aggregation cuvette was 10 μg/mL.
Synthetic collagen was provided by JNC Corporation, Yokohama, Japan at working concentrations of 80, 160, 320 and 640 ng/mL. The final concentrations of synthetic collagen in the aggregation cuvette were 64, 32, 16 and 8 ng/mL.
Approval for the collection of whole blood from healthy human volunteers was granted from the Institutional Review Board of the Health Sciences Division of Loyola University Chicago. Whole blood was drawn using a double syringe technique from the antecubital vein and anticoagulated by the addition of 1 part 3.2% sodium citrate to (9 parts blood to 1 part citrate). Citrated blood was centrifuged at 80×g at room temperature for 15 minutes to make platelet rich plasma (PRP). Supernatant PRP was collected and kept at room temperature in capped tubes. The remaining citrated blood was recentrifuged at 1,100×g for 15 minutes to make platelet poor plasma (PPP). The platelet count of the PRP was determined using an ICHOR II Analyzer, Helena Laboratories, Beaumont, Tex. Platelet count in the PRP was adjusted to 250,000-300,000/μl by the addition of homologous PPP.
Six blood donors were used for this study. Each was drawn on separate days for the ‘non-aspirinized’ and ‘aspirinized’ portions of the protocol. For the ‘non-aspirinized’ portion of the protocol, one donor ([…]) was excluded from the final analysis as the aggregation responses were markedly different from that of the other 5 donors.
Platelet aggregation was measured using a PAP 8E platelet aggregometer (Bio/Data). Each well was blanked using PPP. 25 μl of saline or antiplatelet drug and 200 μl of PRP were added to cuvettes containing magnetic stir bars and incubated for three minutes to equilibrate the sample to 37° C. 25 μl of agonist was added to each cuvette and the aggregation profile was monitored until a plateau was achieved. Results were tabulated in terms of maximal aggregation level. Under some reaction conditions, reversible aggregation was observed. This was most commonly observed with ADP and arachidonic acid-induced aggregation in the presence of ticagrelor or cilostazol. Final aggregation levels were also tabulated.

[2] = system: PRP samples of healthy donors; experiment: LTAAs using synthetic collagen with anti-platelet medication added to the PRP sample (Example 2); format: cell-based; settings: synthetic collagen 12.5, 25, 50, 100 ng/mL
Description: Two healthy donors supplied the PRP samples. A panel of four different synthetic collagen concentrations were tested (12.5 ng/mL, 25 ng/mL, 50 ng/mL and 100 ng/mL Abciximab was added to the each of the four panels of different synthetic collagen concentrations. In one panel, saline was added as the control to each of the four synthetic collagen concentrations. In the second panel, 12.5 μg/mL (micrograms/mL) of abciximab was added to each of the four synthetic collagen concentrations. In a third panel, 25 μg/mL of abciximab was added to each of the four synthetic collagen concentrations. In a fourth panel, 50 μg/mL of abciximab was added to each of the four synthetic collagen concentrations. LTAAs were run for each and the PA, PS, SA, SS AUC, LP, DA, MA and FA was measured for each. The tests were run on each of the donors' samples.
Two healthy donors supplied the PRP samples. […] LTAAs were run for each and the PA, PS, SA, SS AUC, LP, DA, MA and FA was measured for each. […]

platelet aggregation = settings: Aspirin doses greater than 100 mg; cited from earlier work
[3] = non-aspirinized plasma, ADP 10 μM
[4] = non-aspirinized plasma, Chrono Log collagen 10 μg/mL

Row | Molecule | ability to detect the drug in the presence of aspirin [1] | effect on ADP-induced aggregation [1, 3] | effect on biological collagen-induced aggregation ([1]; non-aspirinized plasma) | effect on Bio/Data collagen-induced aggregation ([1]; non-aspirinized plasma) | effect on Chrono Log collagen-induced aggregation [1, 4] | effect on arachidonic acid-induced aggregation ([1]; non-aspirinized plasma) | antiplatelet effect in synthetic collagen-induced aggregation at lower concentrations ([1]; non-aspirinized plasma) | effect on 64 ng/mL synthetic collagen-induced aggregation ([1]; non-aspirinized plasma) | detection of the drug by synthetic collagen LTAA [2] | anti-platelet effect in arachidonic acid-induced aggregation ([1]; aspirinized plasma) | further results
1 | CC(=O)Oc1ccccc1C(=O)O [aspirin, 2-acetyloxybenzoic acid] | – | – | – | – | – | – | – | – | – | – | effect of aspirin on ADP-induced aggregation ([1]; 10 μM ADP): minimally affected; effect of aspirin on Chrono Log collagen-induced aggregation ([1]; 10 μg/mL Chrono Log collagen): did not inhibit; also recorded: not inhibited; effect of aspirin on Bio/Data collagen-induced aggregation ([1]; 0.19 mg/mL Bio/Data collagen): minimally affected; also recorded: not inhibited; effect of aspirin on synthetic collagen-induced aggregation ([1]; all synthetic collagen concentrations tested (8-64 ng/mL)): lower levels of aggregation; also recorded: higher sensitivity to aspirin; arachidonic acid-induced aggregation in aspirinized plasma ([1]; aspirin taken orally <48 hours before draw or 100 μM in vitro, no other drug): < 20%; response to arachidonic acid in aspirinized plasma ([1]; aspirin taken orally or 100 μM in vitro): nearly completely blunted
2 | O=C1CCc2cc(OCCCCc3nnnn3C3CCCCC3)ccc2N1 [cilostazol] | negated the ability to detect cilostazol; also recorded: affected the ability | minimally affected; also recorded: weaker, concentration-dependent inhibition | unaffected | did not inhibit | did not inhibit | strongly inhibited | could be observed; also recorded: readily apparent | did not inhibit; also recorded: minimal effect | – | – | –
3 | CCCSc1nc(N[C@@H]2C[C@H]2c2ccc(F)c(F)c2)c2nnn([C@@H]3C[C@H](OCCO)[C@@H](O)[C@H]3O)c2n1 [ticagrelor, (1S,2S,3R,5S)-3-[7-[[(1R,2S)-2-(3,4-difluorophenyl)cyclopropyl]amino]-5-propylsulfanyltriazolo[4,5-d]pyrimidin-3-yl]-5-(2-hydroxyethoxy)cyclopentane-1,2-diol] | affected the ability; also recorded: can be detected | strongly inhibited; also recorded: inhibited | little effect | Neither Bio/Data collagen, Chrono Log collagen nor 64 ng/mL synthetic collagen was markedly impacted | Neither Bio/Data collagen, Chrono Log collagen nor 64 ng/mL synthetic collagen was markedly impacted | inhibited to a similar extent | could be identified; also recorded: readily apparent | Neither Bio/Data collagen, Chrono Log collagen nor 64 ng/mL synthetic collagen was markedly impacted; also recorded: minimal effect | the assays worked with both | no longer observed | effect of aspirin dose on ticagrelor's inhibition of platelet aggregation (platelet aggregation): reduce the ability of ticagrelor to inhibit platelet aggregation; anti-platelet effect in 8 ng/mL synthetic collagen-induced aggregation ([1]; aspirinized plasma): no longer observed; anti-platelet effect in 16 and 32 ng/mL synthetic collagen-induced aggregation ([1]; aspirinized plasma): reduced; effect of adding aspirin on the drug's ADP-induced aggregation response ([1]; aspirinized plasma, ADP 10 μM): did not affect
4 | abciximab: Immunoglobulin Fragment Fab Fragment Chimeric monoclonal antibody 7E3 (GP IIbIIIa receptor blocker) (antibody, chains of the INN, looked up, V domains shown, Fab) VH: EVQLQQSGTVLARPGASVKMSCEASGYTFTNYWMHWVKQRPGQGLEWIGAIYPGNSDTSYIQKFKGKAKLTAVTSTTSVYMELSSLTNEDSAVYYCTLYDGYYVFAYWGQGTLVTVSA VL: EIVLTQSPVTLSVTPGDSVSLSCRASRDISNNLHWFQQTSHESPRLLIKYASQSMSGIPSRFSGSGSGTDFTLSINSVETEDFGMYFCQQTNSWPYTFGGGTKLEIK | readily detectable | inhibited | inhibited | – | – | most sensitive; also recorded: inhibited | most sensitive; also recorded: readily apparent | inhibited by abciximab to a comparable degree | the assays worked with both | complete inhibition | inhibition of Chrono Log collagen-induced aggregation ([1]; aspirinized PRP compared with non-aspirinized, Chrono Log collagen 10 μg/mL): stronger inhibition; concentration at which inhibition of Bio/Data collagen-induced aggregation was observed ([1]; non-aspirinized plasma): 5 µg/mL; concentration at which inhibition of Chrono Log collagen-induced aggregation was observed ([1]; non-aspirinized plasma): 5 μg/mL; inhibition of agonist-induced aggregation ([1]; non-aspirinized plasma, concentration range tested 1.25-5 μg/mL): concentration-dependent inhibition

— patent US20190004070A9 (JNC CORPORATION, priority 2012, published 2019)
